Assay results reported in patent US20080318943A1, “Compounds and Uses Thereof - 848” (ASTRAZENECA AB, priority 2007, published 2008).

These molecules were tested against T1, GABAA2 receptors (α2, β3, γ2 receptor subunits transfected into Sf9 cells) (Homo sapiens, UniProt P18507+P47869) (assay: GABAA2 Binding Method ([3H]-Flunitrazepam displacement)). Details: [3H]-Flunitrazepam ~2 nM, α2β3γ2 Sf9 membranes, 1 hr at 4° C.
T1 construct: host or cells: Sf9 cells (membranes)
Method: In some embodiments, the binding test is directed to a subtype of GABAA receptors, such as GABAA1 receptors (i.e., those containing the α1 subunit), GABAA2 receptors (i.e., those containing the α2 subunit), GABAA3 receptors (i.e., those containing the α3 subunit) and GABAA5 receptors (i.e., those containing the α5 subunit).
[^3H]-Flunitrazepam (Cat #NET567): Prepare 10× stock=20 nM, [F} in assay=˜2 nM
1. […] Add 5 ul of 30 uM flumazenil to wells 12 D-E for 50% control wells.
5. Add 25 μl [^3H]-Flunitrazepam (Automation Program 6). Incubate for 1 hr at 4° C.
6. Collect membranes on a cell harvester onto GF/B filter plates (pre-wet with dH2O and wash 5×400 μl/well, with cold assay buffer. (First 3 washes are considered hot; last two are cold.)
Data is analyzed by calculating percent of control, IC50, and Ki in an XLfit template. The following formula is used in the templates: […]

T1 sequence (P47869 29-451): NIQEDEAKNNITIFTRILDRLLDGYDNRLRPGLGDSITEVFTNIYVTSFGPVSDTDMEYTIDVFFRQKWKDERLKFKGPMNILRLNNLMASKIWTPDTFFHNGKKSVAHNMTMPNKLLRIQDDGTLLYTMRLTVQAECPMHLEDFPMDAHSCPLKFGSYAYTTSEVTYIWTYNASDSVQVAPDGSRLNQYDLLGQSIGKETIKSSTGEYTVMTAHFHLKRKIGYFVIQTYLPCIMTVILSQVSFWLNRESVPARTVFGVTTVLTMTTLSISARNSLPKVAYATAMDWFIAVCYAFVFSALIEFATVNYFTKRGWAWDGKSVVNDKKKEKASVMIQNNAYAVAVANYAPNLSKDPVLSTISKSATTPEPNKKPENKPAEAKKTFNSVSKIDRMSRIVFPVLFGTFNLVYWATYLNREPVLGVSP
T1 sequence (P28472 26-473 partner): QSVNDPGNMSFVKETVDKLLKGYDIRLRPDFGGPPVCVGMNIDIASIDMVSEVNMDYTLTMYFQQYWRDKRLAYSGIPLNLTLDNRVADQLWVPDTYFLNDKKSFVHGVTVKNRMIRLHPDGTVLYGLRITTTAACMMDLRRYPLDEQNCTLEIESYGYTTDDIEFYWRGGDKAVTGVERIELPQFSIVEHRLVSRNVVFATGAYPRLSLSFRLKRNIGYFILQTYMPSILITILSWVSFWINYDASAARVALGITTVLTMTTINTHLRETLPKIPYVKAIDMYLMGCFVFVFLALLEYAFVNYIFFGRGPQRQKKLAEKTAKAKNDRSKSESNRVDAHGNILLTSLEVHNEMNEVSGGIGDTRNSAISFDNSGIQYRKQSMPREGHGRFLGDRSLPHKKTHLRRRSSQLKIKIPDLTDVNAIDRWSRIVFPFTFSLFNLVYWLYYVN
T1 sequence (P18507 40-475): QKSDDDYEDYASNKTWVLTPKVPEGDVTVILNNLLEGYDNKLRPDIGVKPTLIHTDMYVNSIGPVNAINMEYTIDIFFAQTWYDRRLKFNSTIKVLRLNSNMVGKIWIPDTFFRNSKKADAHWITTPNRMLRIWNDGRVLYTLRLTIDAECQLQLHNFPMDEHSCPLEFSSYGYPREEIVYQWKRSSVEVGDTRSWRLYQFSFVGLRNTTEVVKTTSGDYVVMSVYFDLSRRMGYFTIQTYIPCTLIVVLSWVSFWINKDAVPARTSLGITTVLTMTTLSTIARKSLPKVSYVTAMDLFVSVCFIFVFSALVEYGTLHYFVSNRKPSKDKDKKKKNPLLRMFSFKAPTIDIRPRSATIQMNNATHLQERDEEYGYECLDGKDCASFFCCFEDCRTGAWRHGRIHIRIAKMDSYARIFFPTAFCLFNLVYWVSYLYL

| Compound | Ki [nM] |
| --- | --- |
| CCCN1Cc2nc3c(-c4c(C#N)cccc4OC)cccc3c(N)c2C1=O [2-(9-amino-1-oxo-2-propyl-2,3-dihydro-1H-pyrrolo[3,4-b]quinolin-5-yl)-3-methoxybenzonitrile] | 75.7 |
| CN1Cc2nc3c(-c4ccccc4C#N)cccc3c(N)c2C1=O [2-(9-amino-2-methyl-1-oxo-2,3-dihydro-1H-pyrrolo[3,4-b]quinolin-5-yl)benzonitrile] | 64.3 |
| CCCN1Cc2nc3c(-c4ccc(C#N)cc4)cccc3c(N)c2C1=O [4-(9-amino-1-oxo-2-propyl-2,3-dihydro-1H-pyrrolo[3,4-b]quinolin-5-yl)benzonitrile] | 52.1 |
| CCCN1Cc2nc3c(-c4ccc(F)c(C#N)c4)cccc3c(N)c2C1=O [5-(9-amino-1-oxo-2-propyl-2,3-dihydro-1H-pyrrolo[3,4-b]quinolin-5-yl)-2-fluorobenzonitrile] | 74.5 |
| CCC(C)N1Cc2nc3c(-c4c(F)cccc4OC)cccc3c(N)c2C1=O (stereo not shown) [9-amino-2-(2-butyl)-5-(2-fluoro-6-methoxyphenyl)-2,3-dihydro-1H-pyrrolo[3,4-b]quinolin-1-one] | 46.2 |
| COc1cccc(F)c1-c1cccc2c(N)c3c(nc12)CN(Cc1cccc(Cl)c1)C3=O [9-amino-2-(3-chlorobenzyl)-5-(2-fluoro-6-methoxyphenyl)-2,3-dihydro-1H-pyrrolo[3,4-b]quinolin-1-one] | 27.8 |
| COc1ccc(CN2Cc3nc4c(-c5cnn(C)c5)cccc4c(N)c3C2=O)cc1 [9-amino-2-(4-methoxybenzyl)-5-(1-methyl-1H-pyrazol-4-yl)-2,3-dihydro-1H-pyrrolo[3,4-b]quinolin-1-one] | 70.6 |
| COc1ccc(CN2Cc3nc4c(-c5ccccc5C(F)(F)F)cccc4c(N)c3C2=O)cc1 [9-amino-2-(4-methoxybenzyl)-5-(2-(trifluoromethyl)phenyl)-2,3-dihydro-1H-pyrrolo[3,4-b]quinolin-1-one] | 34.1 |
| COc1ccc(CN2Cc3nc4c(-c5ccc(C)nc5)cccc4c(N)c3C2=O)cc1 [9-amino-2-(4-methoxybenzyl)-5-(6-methylpyridin-3-yl)-2,3-dihydro-1H-pyrrolo[3,4-b]quinolin-1-one] | 60.5 |
| CCCCN1Cc2nc3c(-c4ccc(C)nc4)cccc3c(N)c2C1=O [9-amino-2-butyl-5-(6-methylpyridin-3-yl)-2,3-dihydro-1H-pyrrolo[3,4-b]quinolin-1-one] | 90.5 |
| Nc1c2c(nc3c(-c4cc(F)cc(F)c4)cccc13)CN(C1CCC1)C2=O [9-amino-2-cyclobutyl-5-(3,5-difluorophenyl)-2,3-dihydro-1H-pyrrolo[3,4-b]quinolin-1-one] | 39.3 |
| COc1ccc(-c2cccc3c(N)c4c(nc23)CN(C2CC2)C4=O)c(OC)c1 [9-amino-2-cyclopropyl-5-(2,4-dimethoxyphenyl)-2,3-dihydro-1H-pyrrolo[3,4-b]quinolin-1-one] | 58.4 |
| COc1ncc(-c2cccc3c(N)c4c(nc23)CN(C2CC2)C4=O)c(OC)n1 [9-amino-2-cyclopropyl-5-(2,4-dimethoxypyrimidin-5-yl)-2,3-dihydro-1H-pyrrolo[3,4-b]quinolin-1-one] | 78.2 |
| COc1cc(F)c(-c2cccc3c(N)c4c(nc23)CN(C2CC2)C4=O)cc1F [9-amino-2-cyclopropyl-5-(2,5-difluoro-4-methoxyphenyl)-2,3-dihydro-1H-pyrrolo[3,4-b]quinolin-1-one] | 36.8 |
| COc1ccc(OC)c(-c2c(SC)ccc3c(N)c4c(nc23)CN(C2CC2)C4=O)c1 [9-amino-2-cyclopropyl-5-(2,5-dimethoxyphenyl)-6-(methylthio)-2,3-dihydro-1H-pyrrolo[3,4-b]quinolin-1-one] | 36.7 |
| COc1ccccc1-c1cccc2c(N)c3c(nc12)CN(C1CC1)C3=O [9-amino-2-cyclopropyl-5-(2-methoxyphenyl)-2,3-dihydro-1H-pyrrolo[3,4-b]quinolin-1-one] | 54.1 |
| COc1cc(F)ccc1-c1cccc2c(N)c3c(nc12)CN(C1CC1)C3=O [9-amino-2-cyclopropyl-5-(4-fluoro-2-methoxyphenyl)-2,3-dihydro-1H-pyrrolo[3,4-b]quinolin-1-one] | 83.1 |
| COc1ccc(F)cc1-c1cccc2c(N)c3c(nc12)CN(C1CC1)C3=O [9-amino-2-cyclopropyl-5-(5-fluoro-2-methoxyphenyl)-2,3-dihydro-1H-pyrrolo[3,4-b]quinolin-1-one] | 73.4 |
| Nc1c2c(nc3c(-c4cccnc4)cccc13)CN(C1CC1)C2=O [9-amino-2-cyclopropyl-5-(pyridin-3-yl)-2,3-dihydro-1H-pyrrolo[3,4-b]quinolin-1-one] | 64.7 |
| CCN1Cc2nc3c(-c4cc(F)cc(OC)c4)cccc3c(N)c2C1=O [9-amino-2-ethyl-5-(3-fluoro-5-methoxyphenyl)-2,3-dihydro-1H-pyrrolo[3,4-b]quinolin-1-one] | 34.3 |

| Compound | Ki [nM] |
| --- | --- |
| CCN1Cc2nc3c(-c4ccc(C)nc4)cccc3c(N)c2C1=O [9-amino-2-ethyl-5-(6-methylpyridin-3-yl)-2,3-dihydro-1H-pyrrolo[3,4-b]quinolin-1-one] | 77.6 |
| CCN1Cc2nc3c(-c4cccc(OC)c4F)c(F)ccc3c(N)c2C1=O [9-amino-2-ethyl-6-fluoro-5-(2-fluoro-3-methoxyphenyl)-2,3-dihydro-1H-pyrrolo[3,4-b]quinolin-1-one] | 5.29 |
| Cc1ccncc1-c1cccc2c(N)c3c(nc12)CN(C)C3=O [9-amino-2-methyl-5-(4-methylpyridin-3-yl)-2,3-dihydro-1H-pyrrolo[3,4-b]quinolin-1-one] | 64.9 |
| CCCN1Cc2nc3c(-c4cnn(C)c4)cccc3c(N)c2C1=O [9-amino-5-(1-methyl-1H-pyrazol-4-yl)-2-propyl-2,3-dihydro-1H-pyrrolo[3,4-b]quinolin-1-one] | 99.7 |
| COc1ccc(CN2Cc3nc4c(-c5cccc(F)c5F)cccc4c(N)c3C2=O)cc1 [9-amino-5-(2,3-difluorophenyl)-2-(4-methoxybenzyl)-2,3-dihydro-1H-pyrrolo[3,4-b]quinolin-1-one] | 98.2 |
| CCN1Cc2nc3c(-c4cccc(OC)c4OC)cccc3c(N)c2C1=O [9-amino-5-(2,3-dimethoxyphenyl)-2-ethyl-2,3-dihydro-1H-pyrrolo[3,4-b]quinolin-1-one] | 81.9 |
| CCN1Cc2nc3c(-c4ccc(OC)cc4OC)cccc3c(N)c2C1=O [9-amino-5-(2,4-dimethoxyphenyl)-2-ethyl-2,3-dihydro-1H-pyrrolo[3,4-b]quinolin-1-one] | 99.1 |
| COc1ccc(-c2cccc3c(N)c4c(nc23)CN(C)C4=O)c(OC)c1 [9-amino-5-(2,4-dimethoxyphenyl)-2-methyl-2,3-dihydro-1H-pyrrolo[3,4-b]quinolin-1-one] | 79 |
| COc1ccc(CN2Cc3nc4c(-c5cc(OC)ccc5OC)cccc4c(N)c3C2=O)cc1 [9-amino-5-(2,5-dimethoxyphenyl)-2-(4-methoxybenzyl)-2,3-dihydro-1H-pyrrolo[3,4-b]quinolin-1-one] | 70.2 |
| CCCN1Cc2nc3c(-c4ccc(Cl)nc4Cl)cccc3c(N)c2C1=O [9-amino-5-(2,6-dichloropyridin-3-yl)-2-propyl-2,3-dihydro-1H-pyrrolo[3,4-b]quinolin-1-one] | 21.6 |
| CCN1Cc2nc3c(-c4c(OC)cccc4OC)cccc3c(N)c2C1=O [9-amino-5-(2,6-dimethoxyphenyl)-2-ethyl-2,3-dihydro-1H-pyrrolo[3,4-b]quinolin-1-one] | 82.5 |
| COc1ccc(-c2cccc3c(N)c4c(nc23)CN(C)C4=O)c(F)c1 [9-amino-5-(2-fluoro-4-methoxyphenyl)-2-methyl-2,3-dihydro-1H-pyrrolo[3,4-b]quinolin-1-one] | 77.8 |
| COc1ccc(F)c(-c2cccc3c(N)c4c(nc23)CN(C)C4=O)c1 [9-amino-5-(2-fluoro-5-methoxyphenyl)-2-methyl-2,3-dihydro-1H-pyrrolo[3,4-b]quinolin-1-one] | 55.8 |
| CCCN1Cc2nc3c(-c4cc(-c5ccncc5)ccc4OC)cccc3c(N)c2C1=O [9-amino-5-(2-methoxy-5-(pyridin-4-yl)phenyl)-2-propyl-2,3-dihydro-1H-pyrrolo[3,4-b]quinolin-1-one] | 51.1 |
| COc1ccc(CN2Cc3nc4c(-c5cc(C)ccc5OC)cccc4c(N)c3C2=O)cc1 [9-amino-5-(2-methoxy-5-methylphenyl)-2-(4-methoxybenzyl)-2,3-dihydro-1H-pyrrolo[3,4-b]quinolin-1-one] | 55.1 |
| COc1ccc(C)cc1-c1cccc2c(N)c3c(nc12)CN(C)C3=O [9-amino-5-(2-methoxy-5-methylphenyl)-2-methyl-2,3-dihydro-1H-pyrrolo[3,4-b]quinolin-1-one] | 70.2 |
| CCCN1Cc2nc3c(-c4cnc(OC)nc4)cccc3c(N)c2C1=O [9-amino-5-(2-methoxypyrimidin-5-yl)-2-propyl-2,3-dihydro-1H-pyrrolo[3,4-b]quinolin-1-one] | 75.8 |
| COc1ccc(-c2cccc3c(N)c4c(nc23)CN(C)C4=O)cc1OC [9-amino-5-(3,4-dimethoxyphenyl)-2-methyl-2,3-dihydro-1H-pyrrolo[3,4-b]quinolin-1-one] | 88 |
| CCN1Cc2nc3c(-c4cc(OC)cc(OC)c4)cccc3c(N)c2C1=O [9-amino-5-(3,5-dimethoxyphenyl)-2-ethyl-2,3-dihydro-1H-pyrrolo[3,4-b]quinolin-1-one] | 27.2 |
| COc1cc(OC)cc(-c2cccc3c(N)c4c(nc23)CN(C)C4=O)c1 [9-amino-5-(3,5-dimethoxyphenyl)-2-methyl-2,3-dihydro-1H-pyrrolo[3,4-b]quinolin-1-one] | 74.1 |
